Results as given in paper PMC2643345 (Molecular cancer therapeutics, 2008).

Target: T1, wild-type AR (Homo sapiens, UniProt P10275)
T1 sequence (P10275 1-920): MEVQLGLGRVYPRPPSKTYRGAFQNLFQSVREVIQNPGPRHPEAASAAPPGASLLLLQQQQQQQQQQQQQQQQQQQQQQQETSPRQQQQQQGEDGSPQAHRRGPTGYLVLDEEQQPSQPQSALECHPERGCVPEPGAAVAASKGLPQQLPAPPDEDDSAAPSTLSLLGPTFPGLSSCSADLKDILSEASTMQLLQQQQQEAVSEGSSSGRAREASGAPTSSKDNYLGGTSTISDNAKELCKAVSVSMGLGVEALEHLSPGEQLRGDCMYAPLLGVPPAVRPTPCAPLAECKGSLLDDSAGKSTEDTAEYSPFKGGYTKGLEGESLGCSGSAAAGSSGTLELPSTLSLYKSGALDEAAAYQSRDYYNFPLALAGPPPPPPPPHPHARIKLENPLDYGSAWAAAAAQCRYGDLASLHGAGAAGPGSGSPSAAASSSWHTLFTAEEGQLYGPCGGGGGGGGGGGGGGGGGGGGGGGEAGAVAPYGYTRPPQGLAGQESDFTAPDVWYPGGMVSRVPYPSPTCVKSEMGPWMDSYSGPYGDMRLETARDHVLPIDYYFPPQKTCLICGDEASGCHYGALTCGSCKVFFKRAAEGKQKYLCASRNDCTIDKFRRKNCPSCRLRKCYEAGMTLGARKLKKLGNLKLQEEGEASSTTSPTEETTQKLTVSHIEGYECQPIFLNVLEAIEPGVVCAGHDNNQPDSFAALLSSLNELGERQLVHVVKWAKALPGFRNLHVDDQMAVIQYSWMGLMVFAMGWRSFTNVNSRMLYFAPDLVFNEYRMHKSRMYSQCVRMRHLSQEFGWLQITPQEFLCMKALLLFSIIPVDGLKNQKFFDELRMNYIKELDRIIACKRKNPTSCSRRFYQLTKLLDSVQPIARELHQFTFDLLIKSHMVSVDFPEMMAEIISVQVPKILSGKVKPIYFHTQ
Experiment: Competitive inhibition of [3H]R1881 binding, wild-type AR

binding to the AR (competitive binding, up to 10 μM): did not bind | inhibition at 10 µM (read-out: wild-type (LAPC4/PC3-AR), inhibition of [3H]R1881 binding as symbol): < 20%
SMILES: C[C@]12CC[C@H](O)CC1=CC[C@@H]1[C@@H]2CC[C@]2(C)C(c3cccnc3)=CC[C@@H]12 [Abiraterone]
